Our source for the EC50 values is doi:10.1101/2020.08.04.236091v1 (biorxiv, 2020).

In general, EC50 refers to the concentration at which the effect is half-maximal. Read a low EC50 as an effect from little substance.

The assay addresses T1, MdomOR30a (co-expressed with MdomOrco) (Musca domestica, UniProt A0A1I8MP03).
T1 sequence (A0A1I8MP03 1-373): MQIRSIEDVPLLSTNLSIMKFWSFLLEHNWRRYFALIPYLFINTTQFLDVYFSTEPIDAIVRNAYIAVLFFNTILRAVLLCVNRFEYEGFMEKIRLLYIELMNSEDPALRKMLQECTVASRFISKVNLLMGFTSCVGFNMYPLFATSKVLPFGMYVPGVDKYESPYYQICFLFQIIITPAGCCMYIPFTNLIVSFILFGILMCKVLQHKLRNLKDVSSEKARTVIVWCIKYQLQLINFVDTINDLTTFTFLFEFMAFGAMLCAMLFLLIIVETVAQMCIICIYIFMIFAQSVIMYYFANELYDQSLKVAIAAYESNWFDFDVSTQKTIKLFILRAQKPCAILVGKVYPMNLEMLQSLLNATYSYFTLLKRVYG
T1 sequence (I0E1X6 1-478 partner): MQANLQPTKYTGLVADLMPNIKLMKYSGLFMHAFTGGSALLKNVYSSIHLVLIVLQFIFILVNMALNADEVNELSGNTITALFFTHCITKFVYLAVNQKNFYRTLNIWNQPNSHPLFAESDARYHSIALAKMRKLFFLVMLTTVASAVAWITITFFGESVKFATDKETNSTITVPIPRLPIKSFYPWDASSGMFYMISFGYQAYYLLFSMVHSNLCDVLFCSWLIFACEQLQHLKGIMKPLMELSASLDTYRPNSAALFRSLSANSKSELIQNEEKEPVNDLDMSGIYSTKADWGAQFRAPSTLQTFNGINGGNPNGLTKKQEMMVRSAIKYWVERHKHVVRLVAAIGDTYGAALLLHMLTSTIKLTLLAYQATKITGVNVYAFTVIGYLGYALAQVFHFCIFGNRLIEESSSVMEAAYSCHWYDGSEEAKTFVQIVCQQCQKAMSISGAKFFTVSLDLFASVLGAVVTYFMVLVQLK
As to the kind of experiment: two-electrode voltage clamp, Xenopus oocytes, odorant-induced currents. The class given is cell-based. For orientation: Two-electrode voltage clamp holds a large cell at a set potential and records current.

With `c1ccc2[nH]ccc2c1` [indole], the EC50 was determined as 5.2 µM.
Then `Cc1[nH]c2ccccc2c1C` [2,3-dimethylindole], with 7.04 µM; and `Cc1c[nH]c2ccccc12` [3-methylindole], with 0.331 µM.
